Test results from US20240390340A1 (INCYTE CORPORATION, priority 2023, published 2024).
Where two headings read alike, the source gives them in different places.

Experiments:
KRAS G12D = KRAS G12D (Homo sapiens, UniProt P01116, G12D); assay: GDP-GTP exchange assay (bodipy-GDP/GppNHp, SOS1), KRAS G12D; assay type: biochemical
Procedure: (§1) The inhibitor potency of the exemplified compounds was determined in a fluorescence based guanine nucleotide exchange assay, which measures the exchange of bodipy-GDP (fluorescently labeled GOP) for GppNHp (Non-hydrolyzable GTP analog) to generate the active state of KRAS in the presence of SOS1 (guanine nucleotide exchange factor). Inhibitors were serially diluted in DMSO and a volume of 0.1 μL was transferred to the wells of a black low volume 384-well plate. 5 μL/well volume of bodipy-loaded KRAS G12D diluted to 2.5 nM in assay buffer (25 mM Hepes pH 7.5, 50 mM NaCl, 10 mM MgCl2 and 0.01% Brij-35) was added to the plate and pre-incubated with inhibitor for 4 h at r.t. Appropriate controls (enzyme with no inhibitor or with a G12D inhibitor) were included on the plate. The exchange was initiated by the addition of a 5 μL/well volume containing 1 mM GppNHp and 300 nM SOS1 in assay buffer. The 10 μL/well reaction concentration of the bodipy-loaded KRAS G12D, GppNHp, and SOS1 were 2.5 nM, 500 μM, and 150 nM, respectively. The reaction plates were incubated at r.t. for 2 h, a time estimated for complete GDP-GTP exchange in the absence of inhibitor. For the KRAS G12V mutant, similar guanine nucleotide exchange assays were used with 2.5 nM as final concentration for the bodipy loaded KRAS proteins and 3 h incubation after adding GppNHp-SOS1 mixture. A cyclic peptide described to selectively bind G12D mutant (Sakamoto et al., BBRC 484.3 (2017), 605-611) or internal compounds with confirmed binding were used as positive controls in the assay plates. Fluorescence intensities were measured on a PheraStar plate reader instrument (BMG Labtech) with excitation at 485 nm and emission at 520 nm.
(§2) Either GraphPad prism or Genedata Screener SmartFit was used to analyze the data. The IC50 values were derived by fitting the data to a four parameter logistic equation producing a sigmoidal dose-response curve with a variable Hill coefficient.
(§3) The symbol “†” indicates IC50≤100 nM, “††” indicates IC50>100 nM but ≤1 μM; and “†††” indicates IC50 is >1 μM but ≤5 μM, “††††” indicates IC50 is >5 μM but ≤10 μM. “NA” indicates IC50 not available.

KRAS G12V = KRAS G12V (Homo sapiens, UniProt P01116, G12V); assay: GDP-GTP exchange assay (bodipy-GDP/GppNHp, SOS1), KRAS G12V; assay type: biochemical
Procedure: as §1, §2, §3

[1] = bodipy-loaded KRAS G12D 2.5 nM, 4 h pre-incubation, value for the most potent isomer quoted for certain compounds, read-out: G12D (KRAS G12D exchange assay IC50)
[2] = KRAS G12V mutant, value for the most potent isomer quoted for certain compounds, read-out: G12V (KRAS G12V exchange assay IC50)

KRAS G12D, sequence (P01116 1-188 isoform P01116-2 G12D): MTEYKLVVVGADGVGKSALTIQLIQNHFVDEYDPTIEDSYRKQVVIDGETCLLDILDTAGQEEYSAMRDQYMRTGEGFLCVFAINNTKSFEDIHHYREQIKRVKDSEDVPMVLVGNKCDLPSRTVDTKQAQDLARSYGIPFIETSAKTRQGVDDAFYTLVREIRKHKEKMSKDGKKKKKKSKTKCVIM
KRAS G12V, sequence (P01116 1-188 isoform P01116-2 G12V): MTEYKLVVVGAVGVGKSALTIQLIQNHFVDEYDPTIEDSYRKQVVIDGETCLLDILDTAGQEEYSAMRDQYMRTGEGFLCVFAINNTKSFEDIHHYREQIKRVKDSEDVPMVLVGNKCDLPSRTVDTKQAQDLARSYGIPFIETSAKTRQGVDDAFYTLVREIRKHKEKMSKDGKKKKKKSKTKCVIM

| Structure (SMILES) | IC50 (KRAS G12D; [1]) [nM] | IC50 (KRAS G12V; [2]) [nM] | IC50 (KRAS G12D; Table H, column G12D, for compounds isolated as several atropisomers/diastereoisomers the value for the most potent isomer is quoted, read-out: KRAS G12D exchange assay IC50) [nM] | IC50 (KRAS G12V; Table H, column G12V, for compounds isolated as several atropisomers/diastereoisomers the value for the most potent isomer is quoted, read-out: KRAS G12V exchange assay IC50) [nM] |
| --- | --- | --- | --- | --- |
| Cc1ccncc1O[C@H]1C[C@H](c2cc3c(C)nc4c(F)c(-c5cccc(Cl)c5Cl)c(CCC#N)cc4c3n2[C@H]2[C@H]3CN[C@@H]2C3)N(C(=O)C2CC2)C1 [Example 130] | ≤ 100 | ≤ 100 |  |  |
| Cc1nc2c(F)c(-c3cccc(Cl)c3Cl)c(CCC#N)cc2c2c1cc([C@H]1C[C@H](Oc3cccnc3OCC(F)(F)F)CN1C(=O)C1CC1)n2[C@H]1[C@H]2CN[C@@H]1C2 [Example 446] | ≤ 100 | ≤ 100 |  |  |
| Cc1nc2c(F)c(-c3cccc(Cl)c3Cl)c(CCC#N)cc2c2c1cc([C@H]1C[C@H](OCc3c(Cl)cccc3Cl)CN1C(=O)C1CC1)n2[C@H]1[C@H]2CN[C@@H]1C2 [Example 116] | ≤ 100 | ≤ 100 |  |  |
| COC(=O)c1cccc(O[C@H]2C[C@H](c3cc4c(C)nc5c(F)c(-c6cccc(Cl)c6Cl)c(CCC#N)cc5c4n3[C@H]3[C@H]4CN[C@@H]3C4)N(C(=O)C3CC3)C2)c1 [Example 189] | ≤ 100 | ≤ 100 |  |  |
| Cc1nnn([C@H]2C[C@H](c3cc4c(C)nc5c(F)c(-c6cccc(Cl)c6Cl)c(CCC#N)cc5c4n3[C@H]3[C@H]4CN[C@@H]3C4)N(C(=O)C3CC3)C2)c1CO [Example 327] | ≤ 100 | ≤ 100 |  |  |
| Cc1nc2c(F)c(-c3cccc(Cl)c3Cl)c(CCC#N)cc2c2c1cc([C@H]1C[C@H](Oc3ccnc(N4CC(C(F)F)C4)c3)CN1C(=O)C1CC1)n2[C@H]1[C@H]2CN[C@@H]1C2 [Example 370] | ≤ 100 | ≤ 100 |  |  |
| Cc1nc2c(F)c(-c3cccc(Cl)c3Cl)c(CCC#N)cc2c2c1cc([C@H]1C[C@H](OCC3CCOCC3)CN1C(=O)C1CC1)n2[C@H]1[C@H]2CN[C@@H]1C2 [Example 413] | ≤ 100 | ≤ 100 |  |  |
| Cc1nc2c(F)c(-c3cccc(Cl)c3Cl)c(CCC#N)cc2c2c1cc([C@H]1C[C@H](Oc3ccc(N4CCOCC4)nc3)CN1C(=O)C1CC1)n2[C@H]1[C@H]2CN[C@@H]1C2 [Example 36, 3-(1-((1R,4R,5S)-2-Azabicyclo[2.1.1]hexan-5-yl)-2-((2R,4S)-1-(cyclopropanecarbonyl)-4-((6-morpholinopyridin-3-yl)oxy)pyrrolidin-2-yl)-7-(2,3-dichlorophenyl)-6-fluoro-4-methyl-1H-pyrrolo[3,2-c]quinolin-8-yl)propanenitrile] |  |  | ≤ 100 | ≤ 100 |
| Cc1nc2c(F)c(-c3cccc(Cl)c3Cl)c(CCC#N)cc2c2c1cc([C@H]1C[C@H](OCc3ncco3)CN1C(=O)C1CC1)n2[C@H]1[C@H]2CN[C@@H]1C2 [Example 104] | ≤ 100 | 100 to 1000 |  |  |
| COC(=O)[C@H]1C[C@H]1c1cn([C@H]2C[C@H](c3cc4c(C)nc5c(F)c(-c6cccc(Cl)c6Cl)c(CCC#N)cc5c4n3[C@H]3[C@H]4CN[C@@H]3C4)N(C(=O)C3CC3)C2)nn1 [Example 390] | ≤ 100 | ≤ 100 |  |  |
| Cc1nc2c(F)c(-c3cccc(Cl)c3Cl)c(CCC#N)cc2c2c1cc([C@H]1C[C@H](n3ccc(C#N)n3)CN1C(=O)C1CC1)n2[C@H]1[C@H]2CN[C@@H]1C2 [Example 317] | ≤ 100 | ≤ 100 |  |  |
| Cc1nc2c(F)c(-c3cccc(Cl)c3Cl)c(CCC#N)cc2c2c1cc([C@H]1C[C@H](Oc3cncnc3)CN1C(=O)C1CC1)n2[C@H]1[C@H]2CN[C@@H]1C2 [Example 136] | ≤ 100 | ≤ 100 |  |  |
| CNC(=O)c1ccc(-c2nc3c(F)c(-c4cccc(Cl)c4Cl)c(CCC#N)cc3c3c2cc([C@H]2C[C@H](OCc4c(F)cccc4F)CN2C(=O)C2CC2)n3[C@H]2[C@H]3CN[C@@H]2C3)cn1 [Example 220] | ≤ 100 | ≤ 100 |  |  |
| Cc1csnc1C(C)O[C@H]1C[C@H](c2cc3c(C)nc4c(F)c(-c5cccc(Cl)c5Cl)c(CCC#N)cc4c3n2[C@H]2[C@H]3CN[C@@H]2C3)N(C(=O)C2CC2)C1 (stereo partly shown) [Example 330] | ≤ 100 | ≤ 100 |  |  |
| Cc1nc2c(F)c(-c3cccc(Cl)c3Cl)c(CCC#N)cc2c2c1cc([C@H]1C[C@H](n3cc(C4(C(C)(F)F)CC4)nn3)CN1C(=O)C1CC1)n2[C@H]1[C@H]2CN[C@@H]1C2 [Example 382] | ≤ 100 | ≤ 100 |  |  |

Continued, values first:

| IC50 (KRAS G12D; [1]) [nM] | IC50 (KRAS G12V; [2]) [nM] | IC50 (KRAS G12D; Table H, column G12D, for compounds isolated as several atropisomers/diastereoisomers the value for the most potent isomer is quoted, read-out: KRAS G12D exchange assay IC50) [nM] | IC50 (KRAS G12V; Table H, column G12V, for compounds isolated as several atropisomers/diastereoisomers the value for the most potent isomer is quoted, read-out: KRAS G12V exchange assay IC50) [nM] | Structure (SMILES) |
| --- | --- | --- | --- | --- |
| ≤ 100 | ≤ 100 |  |  | Cc1cnn([C@H]2C[C@H](c3cc4c(C)nc5c(F)c(-c6cccc(Cl)c6Cl)c(CCC#N)cc5c4n3[C@H]3[C@H]4CN[C@@H]3C4)N(C(=O)C3CC3)C2)n1 [Example 344] |
| ≤ 100 | ≤ 100 |  |  | C[C@@H](O)c1nc2c(F)c(-c3cccc(Cl)c3Cl)c(CCC#N)cc2c2c1cc([C@H]1[C@@H](F)[C@H](Oc3ccccn3)CN1C(=O)C1CC1)n2[C@H]1[C@H]2CN[C@@H]1C2 [Example 85] |
| ≤ 100 | ≤ 100 |  |  | Cc1nc2c(F)c(-c3cccc(Cl)c3Cl)c(CCC#N)cc2c2c1cc([C@H]1C[C@H](Oc3cccnc3OC(C)C)CN1C(=O)C1CC1)n2[C@H]1[C@H]2CN[C@@H]1C2 [Example 444] |
| ≤ 100 | ≤ 100 |  |  | N#CCCc1cc2c(nc(C3CCNC3)c3cc([C@H]4C[C@H](OCc5c(F)cccc5F)CN4C(=O)C4CC4)n([C@H]4[C@H]5CN[C@@H]4C5)c32)c(F)c1-c1cccc(Cl)c1Cl (stereo partly shown) [Example 239] |
| ≤ 100 | ≤ 100 |  |  | Cc1nc2c(F)c(-c3cccc(Cl)c3Cl)c(CCC#N)cc2c2c1cc([C@H]1C[C@H](OC(C)c3nccs3)CN1C(=O)C1CC1)n2[C@H]1[C@H]2CN[C@@H]1C2 (stereo partly shown) [Example 363] |
| ≤ 100 | ≤ 100 |  |  | COC(=O)c1ncn([C@H]2C[C@H](c3cc4c(C)nc5c(F)c(-c6cccc(Cl)c6Cl)c(CCC#N)cc5c4n3[C@H]3[C@H]4CN[C@@H]3C4)N(C(=O)C3CC3)C2)n1 [Example 348] |
| ≤ 100 | ≤ 100 |  |  | COC(=O)c1cnn([C@H]2C[C@H](c3cc4c(C)nc5c(F)c(-c6cccc(Cl)c6Cl)c(CCC#N)cc5c4n3[C@H]3[C@H]4CN[C@@H]3C4)N(C(=O)C3CC3)C2)c1 [Example 353] |
| ≤ 100 | ≤ 100 |  |  | Cc1nc2c(F)c(-c3cccc(Cl)c3Cl)c(CCC#N)cc2c2c1cc([C@H]1C[C@H](Oc3cccnc3N3CCOCC3)CN1C(=O)C1CC1)n2[C@H]1[C@H]2CN[C@@H]1C2 [Example 284] |
| ≤ 100 | ≤ 100 |  |  | Cc1nc2c(F)c(-c3cccc(Cl)c3Cl)c(CCC#N)cc2c2c1cc([C@H]1C[C@H](OCc3ccncc3)CN1C(=O)C1CC1)n2[C@H]1[C@H]2CN[C@@H]1C2 [Example 96] |
| ≤ 100 | ≤ 100 |  |  | COc1cccc(O[C@H]2C[C@H](c3cc4c(C)nc5c(F)c(-c6cccc(Cl)c6Cl)c(CCC#N)cc5c4n3[C@H]3C4CNC3C4)N(C(=O)C3CC3)C2)n1 (stereo partly shown) [Example 199] |
| ≤ 100 | ≤ 100 |  |  | Cc1nc2c(F)c(-c3cccc(Cl)c3Cl)c(CCC#N)cc2c2c1cc([C@H]1C[C@H](n3cc(C#N)cn3)CN1C(=O)C1CC1)n2[C@H]1[C@H]2CN[C@@H]1C2 [Example 281] |
| ≤ 100 | ≤ 100 |  |  | Cc1nc2c(F)c(-c3cccc(Cl)c3Cl)c(CCC#N)cc2c2c1cc([C@H]1C[C@H](OCc3cccc(F)c3C#N)CN1C(=O)C1CC1)n2[C@H]1[C@H]2CN[C@@H]1C2 [Example 156] |
| ≤ 100 | ≤ 100 |  |  | Cc1nc2c(F)c(-c3cccc(Cl)c3Cl)c(CCC#N)cc2c2c1cc([C@H]1C[C@H](Oc3ccc(F)cc3)CN1C(=O)C1CC1)n2[C@H]1[C@H]2CN[C@@H]1C2 [Example 120] |
| ≤ 100 | ≤ 100 |  |  | Cc1nc(CO[C@H]2C[C@H](c3cc4c(C)nc5c(F)c(-c6cccc(Cl)c6Cl)c(CCC#N)cc5c4n3[C@H]3[C@H]4CN[C@@H]3C4)N(C(=O)C3CC3)C2)cs1 [Example 107] |
